Reference: patent publication EP4455142A1, “NOVEL INHIBITOR OF QPCTL AND/OR QC” (Scenic Immunology B.V., priority 2023, dated 2024)

Experiments:
[1] = Low dose pharmacokinetics; assay type: in vivo; details: mouse, plasma, iv, 1 mg/kg; C57BI/6 mice, intravenously, 1 mg per kg bodyweight
Description: In order to determine the stability of test compounds in plasma, low-dose pharmacokinetic experiments were carried out in C57BI/6 mice. Test compounds were dissolved at 0.1 mg/mL in an appropriate vehicle and dosed intravenously at 1 mg per kg bodyweight in three animals per compound. At various (between 5 and 9) timepoints after injection, up to 24 hours, blood samples were drawn, plasma isolated and test compound concentrations were determined using LC-MS/MS. t½ values were subsequently calculated using Phoenix WinNonlin 6.3 software and averaged over the three mice per test compound.

[2] = system: Raji human Burkitt's lymphoma cells; test: In vivo Raji xenograft mouse model; set-up: species or system NSG mice; details: (1) 100 mg/kg orally once daily in combination with Rituximab 10 mg/kg intravenously Q3D, versus Rituximab alone
Description: Anti tumor effects were determined in a model for Burkitt's lymphoma. NSG mice were intravenuously injected with 1 × 10^6 Raji human Burkitt's lymphoma cells. Four days after tumor cell injection, animals were treated with compound (1) as a single agent and in combination with Rituximab (anti-CD20 antibody). Compound (1) was administered at 100 mg/kg orally, once daily. Rituximab was dosed at 10 mg/kg intravenously every third day (Q3D). Tumor progression was evaluated by monitoring animal health and body weight measurement. […] Animals treated with compound in combination with Rituximab, on average, lived 5.5 days longer than animals treated with Rituximab alone.

Pan02 cells = test: In vivo Pan02 syngeneic mouse model; set-up: species or system C57BL/6 female mice
Description: Anti tumor effects were evaluated in the Pan02, pancreatic adenocarcinoma syngeneic mouse tumor model. For this study 3 × 10^6 Pan02 cells were injected in the right front flank of C57BL/6 female mice. Tumor size was measured and when tumors reached an average size of 80-120 mm^3, treatment was started. Treatment consisted of compound alone, or in combination with the anti PD-L1 antibody (B7-H1). Compound (1) was administered orally at 100 mg/kg once daily and anti-PD-L1 antibody was administered intraperitoneally at 10 mg/kg twice weekly. Tumor progression was monitored by tumor volume measurement using a caliper.

In the case of `O=C1OC[C@H](c2ccc(-c3cnn(C(F)(F)F)c3)cc2F)N1c1ccc2[nH]cnc2c1` [Compound (1)], the half-life [1] is reported as 239 to 275 min, the “lived longer than animals treated with Rituximab alone (on average)” value [2] is reported as 5.5 days and the “anti tumor effect (tumor volume), combined with anti-PD-L1 antibody” value (Pan02 cells; (1) orally 100 mg/kg once daily plus anti-PD-L1 antibody intraperitoneally 10 mg/kg twice weekly) is reported as “tumor regression”. The “anti tumor effect (tumor volume), compound alone” value (Pan02 cells; (1) orally 100 mg/kg once daily, by itself) was “tumor growth inhibition”.
